Reference: ChEMBL document CHEMBL1201862, “PubChem BioAssay data set” (2004)
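All cell lines were grown in 96-well plates and treated with compound for 48 hours. Abbreviation: GI50, concentration required for 50% inhibition of growth.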 Active and inactive are the calls of the source. No stated cut-off is given here; in the data, active = GI50 up to about 1.1 µM and inactive = higher.

What was measured:
Assay in all cases: NCI anticancer screen, dose series, 48 h
786-0 = system: 786-0
A498 = system: A498
A549 = system: A549
ACHN = system: ACHN
CAKI-1 = system: CAKI-1
CCRF-CEM = system: CCRF-CEM
COLO 205 = system: COLO 205
DLD-1 = system: DLD-1
DMS-114 = system: DMS-114
DMS-273 = system: DMS-273
EKVX = system: EKVX
HCC 2998 = system: HCC 2998
HCT-116 = system: HCT-116
HCT-15 = system: HCT-15
HL-60 = system: HL-60
HOP-62 = system: HOP-62
HT-29 = system: HT-29
IGROV-1 = system: IGROV-1
K562 = system: K562
KM-20L2 = system: KM-20L2
KM12 = system: KM12
LOX IMVI = system: LOX IMVI
LXFL 529 = system: LXFL 529
M14 = system: M14
M19-MEL = system: M19-MEL
MOLT-4 = system: MOLT-4
Malme-3M = system: Malme-3M
NCI-H226 = system: NCI-H226
NCI-H23 = system: NCI-H23
NCI-H460 = system: NCI-H460
NCI-H522 = system: NCI-H522
OVCAR-3 = system: OVCAR-3
OVCAR-4 = system: OVCAR-4
OVCAR-5 = system: OVCAR-5
OVCAR-8 = system: OVCAR-8
RPMI-8226 = system: RPMI-8226
RXF 393 = system: RXF 393
SF-268 = system: SF-268
SF-295 = system: SF-295
SF-539 = system: SF-539
SK-MEL-28 = system: SK-MEL-28
SK-MEL-2 = system: SK-MEL-2
SK-MEL-5 = system: SK-MEL-5
SN12C = system: SN12C
SNB-19 = system: SNB-19
SNB-75 = system: SNB-75
SNB-78 = system: SNB-78
SW-620 = system: SW-620
TK-10 = system: TK-10
U-251 = system: U-251
UACC-257 = system: UACC-257
UACC-62 = system: UACC-62
UO-31 = system: UO-31
XF498 = system: XF498
HOP-18 = system: HOP-18
HOP-92 = system: HOP-92
SK-OV-3 = system: SK-OV-3

SMILES: C1CCN2CC3CONC3C2C1 (centres undefined)
- GI50 (786-0): > 100 µM (inactive)
- GI50 (A498): > 100 µM (inactive)
- GI50 (A549): > 100 µM (inactive)
- GI50 (ACHN): > 100 µM (inactive)
- GI50 (CAKI-1): > 100 µM (inactive)
- GI50 (CCRF-CEM): > 100 µM (inactive)
- GI50 (COLO 205): > 100 µM (inactive)
- GI50 (DLD-1): > 100 µM (inactive)
- GI50 (DMS-114): > 100 µM (inactive)
- GI50 (DMS-273): > 100 µM (inactive)
- GI50 (EKVX): > 100 µM (inactive)
- GI50 (HCC 2998): > 100 µM (inactive)
- GI50 (HCT-116): > 100 µM (inactive)
- GI50 (HCT-15): > 100 µM
- GI50 (HL-60): > 100 µM (inactive)
- GI50 (HOP-62): > 100 µM (inactive)
- GI50 (HT-29): > 100 µM (inactive)
- GI50 (IGROV-1): > 100 µM (inactive)
- GI50 (K562): > 100 µM (inactive)
- GI50 (KM-20L2): > 100 µM (inactive)
- GI50 (KM12): > 100 µM (inactive)
- GI50 (LOX IMVI): > 100 µM (inactive)
- GI50 (LXFL 529): > 100 µM (inactive)
- GI50 (M14): > 100 µM (inactive)
- GI50 (M19-MEL): > 100 µM (inactive)
- GI50 (MOLT-4): > 100 µM (inactive)
- GI50 (Malme-3M): > 100 µM (inactive)
- GI50 (NCI-H226): > 100 µM (inactive)
- GI50 (NCI-H23): > 100 µM (inactive)
- GI50 (NCI-H460): > 100 µM (inactive)
- GI50 (NCI-H522): > 100 µM (inactive)
- GI50 (OVCAR-3): > 100 µM (inactive)
- GI50 (OVCAR-4): > 100 µM (inactive)
- GI50 (OVCAR-5): > 100 µM (inactive)
- GI50 (OVCAR-8): > 100 µM (inactive)
- GI50 (RPMI-8226): > 100 µM (inactive)
- GI50 (RXF 393): > 100 µM (inactive)
- GI50 (SF-268): > 100 µM (inactive)
- GI50 (SF-295): > 100 µM (inactive)
- GI50 (SF-539): > 100 µM (inactive)
- GI50 (SK-MEL-28): > 100 µM (inactive)
- GI50 (SK-MEL-2): > 100 µM (inactive)
- GI50 (SK-MEL-5): > 100 µM (inactive)
- GI50 (SN12C): > 100 µM (inactive)
- GI50 (SNB-19): > 100 µM (inactive)
- GI50 (SNB-75): > 100 µM (inactive)
- GI50 (SNB-78): > 100 µM (inactive)
- GI50 (SW-620): > 100 µM (inactive)
- GI50 (TK-10): > 100 µM (inactive)
- GI50 (U-251): > 100 µM (inactive)
- GI50 (UACC-257): > 100 µM (inactive)
- GI50 (UACC-62): > 100 µM (inactive)
- GI50 (UO-31): > 100 µM (inactive)
- GI50 (XF498): > 100 µM (inactive)

SMILES: CN(C)C(=C1C(Br)=C(Br)C(Br)=C1Br)N(C)C
- GI50 (786-0): > 100 µM (inactive)
- GI50 (A549): > 100 µM (inactive)
- GI50 (ACHN): > 100 µM (inactive)
- GI50 (CAKI-1): > 100 µM (inactive)
- GI50 (CCRF-CEM): 26.3 µM (inactive)
- GI50 (COLO 205): > 100 µM (inactive)
- GI50 (DLD-1): > 100 µM (inactive)
- GI50 (DMS-114): > 100 µM (inactive)
- GI50 (DMS-273): > 100 µM (inactive)
- GI50 (EKVX): > 100 µM (inactive)
- GI50 (HCC 2998): > 100 µM (inactive)
- GI50 (HCT-15): > 100 µM
- GI50 (HL-60): 46.3 µM (inactive)
- GI50 (HOP-18): > 100 µM (inactive)
- GI50 (HOP-62): > 100 µM (inactive)
- GI50 (HOP-92): > 100 µM (inactive)
- GI50 (HT-29): > 100 µM (inactive)
- GI50 (IGROV-1): > 100 µM (inactive)
- GI50 (K562): 30.4 µM (inactive)
- GI50 (KM-20L2): > 100 µM (inactive)
- GI50 (KM12): > 100 µM (inactive)
- GI50 (LOX IMVI): 21.5 µM (inactive)
- GI50 (LXFL 529): 75 µM (inactive)
- GI50 (M14): > 100 µM (inactive)
- GI50 (M19-MEL): > 100 µM (inactive)
- GI50 (MOLT-4): > 100 µM (inactive)
- GI50 (Malme-3M): > 100 µM (inactive)
- GI50 (NCI-H23): > 100 µM (inactive)
- GI50 (NCI-H460): > 100 µM (inactive)
- GI50 (NCI-H522): 17.5 µM (inactive)
- GI50 (OVCAR-3): > 100 µM (inactive)
- GI50 (OVCAR-4): > 100 µM (inactive)
- GI50 (OVCAR-5): > 100 µM (inactive)
- GI50 (OVCAR-8): > 100 µM (inactive)
- GI50 (RPMI-8226): 22.7 µM (inactive)
- GI50 (RXF 393): > 100 µM (inactive)
- GI50 (SF-268): > 100 µM (inactive)
- GI50 (SF-295): > 100 µM (inactive)
- GI50 (SF-539): > 100 µM (inactive)
- GI50 (SK-MEL-28): > 100 µM (inactive)
- GI50 (SK-MEL-2): > 100 µM (inactive)
- GI50 (SK-MEL-5): > 100 µM (inactive)
- GI50 (SK-OV-3): > 100 µM (inactive)
- GI50 (SN12C): > 100 µM (inactive)
- GI50 (SNB-75): 38.6 µM (inactive)
- GI50 (SW-620): 83.8 µM (inactive)
- GI50 (TK-10): > 100 µM (inactive)
- GI50 (U-251): > 100 µM (inactive)
- GI50 (UACC-257): > 100 µM (inactive)
- GI50 (UACC-62): > 100 µM (inactive)
- GI50 (UO-31): > 100 µM (inactive)

SMILES: C1=CC(=NN=P(c2ccccc2)(c2ccccc2)c2ccccc2)C=C1
- GI50 (786-0): > 100 µM (inactive)
- GI50 (A549): > 100 µM (inactive)
- GI50 (ACHN): > 100 µM (inactive)
- GI50 (CAKI-1): > 100 µM (inactive)
- GI50 (CCRF-CEM): > 100 µM (inactive)
- GI50 (COLO 205): > 100 µM (inactive)
- GI50 (DLD-1): > 100 µM (inactive)
- GI50 (DMS-114): 51.9 µM (inactive)
- GI50 (DMS-273): > 100 µM (inactive)
- GI50 (EKVX): > 100 µM (inactive)
- GI50 (HCC 2998): > 100 µM (inactive)
- GI50 (HCT-15): > 100 µM
- GI50 (HL-60): 98.2 µM (inactive)
- GI50 (HOP-62): > 100 µM (inactive)
- GI50 (HOP-92): 55.2 µM (inactive)
- GI50 (HT-29): > 100 µM (inactive)
- GI50 (IGROV-1): > 100 µM (inactive)
- GI50 (K562): 64 µM (inactive)
- GI50 (KM-20L2): > 100 µM (inactive)
- GI50 (KM12): > 100 µM (inactive)
- GI50 (LOX IMVI): > 100 µM (inactive)
- GI50 (LXFL 529): > 100 µM (inactive)
- GI50 (M14): > 100 µM (inactive)
- GI50 (M19-MEL): > 100 µM (inactive)
- GI50 (MOLT-4): > 100 µM (inactive)
- GI50 (Malme-3M): > 100 µM (inactive)
- GI50 (NCI-H23): > 100 µM (inactive)
- GI50 (NCI-H460): > 100 µM (inactive)
- GI50 (NCI-H522): 88.5 µM (inactive)
- GI50 (OVCAR-3): > 100 µM (inactive)
- GI50 (OVCAR-4): > 100 µM (inactive)
- GI50 (OVCAR-5): > 100 µM (inactive)
- GI50 (OVCAR-8): > 100 µM (inactive)
- GI50 (RPMI-8226): > 100 µM (inactive)
- GI50 (RXF 393): > 100 µM (inactive)
- GI50 (SF-268): > 100 µM (inactive)
- GI50 (SK-MEL-28): > 100 µM (inactive)
- GI50 (SK-MEL-2): > 100 µM (inactive)
- GI50 (SK-MEL-5): > 100 µM (inactive)
- GI50 (SK-OV-3): > 100 µM (inactive)
- GI50 (SN12C): > 100 µM (inactive)
- GI50 (SNB-19): > 100 µM (inactive)
- GI50 (SNB-75): > 100 µM (inactive)
- GI50 (SW-620): > 100 µM (inactive)
- GI50 (TK-10): > 100 µM (inactive)
- GI50 (UACC-257): > 100 µM (inactive)
- GI50 (UACC-62): > 100 µM (inactive)
- GI50 (UO-31): > 100 µM (inactive)
- GI50 (XF498): > 100 µM (inactive)
